Assays:
Format in all cases: cell-based, human
HL-60 cells [1] = test: DNA fragmentation / apoptosis, fluorescein TUNEL assay; details: for % fluorescein positive (TUNEL): HL-60 + DMSO
Text: Over-expression of bcl-2 depresses the baseline apoptosis to less than 1% (FIG. 8). […] The high level expression of bcl-2 in HL-60-bcl-2 cells appears to be responsible for not only the block in apoptosis (Park et al., 1994), but also the failure to downregulate expression of APE with induction of differentiation. […] This leads to the conclusion that the decrease in expression of APE observed on Northern and Western blot (FIG. 6) in induced HL-60 cells is associated with programmed cell death.
(§1) To determine if the cells undergoing apoptosis were also the cells downregulating APE, double labeling experiments were performed on a 50:50 mix of untreated and RA treated (6 days, 10^−5 M) HL-60 cells (FIG. 9A). Cytocentrifuge preparations were stained for 1) fragmented DNA using fluorescein-dUTP in the TUNEL assay (FIG. 9C) and 2) APE using polyclonal rabbit anti-APE with a rhodamine labeled goat anti-rabbit secondary antibody (FIG. 9B). Cells undergoing apoptosis fluoresce ‘green’ and cells expressing APE fluoresce ‘red’. […] Conversely, TUNEL negative cells, not undergoing apoptosis, stained strongly positive for APE. Thus, HL-60 cells undergoing apoptosis appear to lose expression of APE.
(§2) The inventor further characterized the temporal decline in APE expression to see if it was an early event in programmed cell death or if the decline coincided with fragmentation of DNA (TUNEL assay); the inventor assayed APE expression and DNA fragmentation on cytospun preparations of cells after exposure to DMSO. The expression of APE started to fall with fewer rhodamine positive cells after 2 days of DMSO while statistically significant evidence of fragmented DNA was not apparent until after 4-6 days (Table 7, FIG. 8). A similar pattern was observed, but not as rapid a loss of APE expression, after exposure to RA or PMA. Thus the decrease in APE expression associated with programmed cell death appears to be an early event occurring before the final pathologic consequences of DNA fragmentation in apoptosis.

HL-60 cells [2] = test: Western blot of APE protein expression after differentiation induction
Procedure: (§3) FIG. 6A and FIG. 6B: Expression of APE in HL-60 cells. FIG. 6A, HL-60 cells at 0, 2, 4, and 6 days after treatment with 10^−5 M RA or 1.25% DMSO, Western blot (top) probed with an affinity purified polyclonal rabbit anti-APE antibody which detects the 37,000 Daltons human APE. Northern blots (middle and bottom) probed for the 1.6 Kb APE mRNA and GAPDH transcripts. FIG. 6B, HL-60 cells treated with 100 nM PMA.
Western blot analysis was performed as has been previously described (Wilson et al., 1994; 1995, FIG. 16). Whole cell extracts were electrophoresed on a 12% SDS-PAGE and electroblotted onto 0.2 micron nitrocellulose. The filter was incubated in blocking buffer which contains 5% non-fat milk for 1 hour. Next, the antibody (affinity purified APE) was diluted to the appropriate concentration (1:100) and incubated with the filter overnight at 4° C. The filter was washed in 1×TBST and incubated in TBST containing 5% milk and cross-reacting proteins were detected using the Chemiluminescence Western Blotting Kit from Boehringer-Mannheim (Indianapolis, Ind.) as directed. Western blot analysis of HeLa cell (human) or NIH3T3 (mouse) cells using antibody produced in rabbits or chickens are shown in FIG. 16. The antibodies were affinity purified and only a single cross-reacting protein is visible in the human or mouse cells. […]

HL-60-bcl-2 cells [3] = test: as above; details: 10^-5 M RA, 1.25% DMSO or 100 nM PMA, compared to parental HL-60
Procedure: (§4) FIG. 7A and FIG. 7B: Expression of APE in HL-60-bcl-2 cells. FIG. 7A, HL-60-bcl-2 cells at 0, 2, 4, and 6 days after treatment with 10^−5 M RA or 1.25% DMSO, Western blot (top) probed with an affinity purified polyclonal rabbit anti-APE antibody. Northern blots (middle and bottom) probed for the 1.6 Kb APE and GAPDH transcripts. FIG. 7B, HL-60-bcl-2 cells treated with 100 nM PMA.
(§5) To ascertain whether APE expression was associated with differentiation or programmed cell death, the inventor blocked apoptosis by over-expression of the proto-oncogene bcl-2 using HL-60 cells transduced with the retroviral construct LbcI2SN (Park et al, 1994). […] The apparent decrease in APE transcript expression after 6 days exposure to RA or DMSO results from loading differences as evidenced by the GAPDH Northern control blot (FIG. 7). […] Thus constitutive expression of bcl-2 inhibits the decrease in APE expression as well as programmed cell death normally observed with granulocytic or monocytic/macrophage induced differentiation of HL-60 cells.

HL-60 cells [4] = test: APE expression on cytospun cells, rhodamine-labeled anti-APE staining; details: for % rhodamine positive (APE): HL-60 + DMSO
Procedure: as §1, §2

HL-60 cells [5] = test: Northern blot of APE transcript after differentiation induction
Procedure: as §3
To investigate possible changes in expression of the DNA repair enzyme APE in differenntiating myeloid cells, the inventor utilized Northern and Western blot analysis with the HL-60 myeloid leukemia cell line, which can be induced to terminally differentiate into mature granulocytes or monocyte/macrophage (Collins, 1987). […] To determine whether the decrease in APE expression was confined to granulocytic differentiation, HL-60 cells were induced down the monocyte/macrophage pathway with PMA.

HL-60-bcl-2 cells [6] = test: Northern blot of APE mRNA after differentiation induction; details: 10^-5 M RA, 1.25% DMSO or 100 nM PMA
Procedure: as §4, §5

HL-60-bcl-2 cells [7] = test: Viability of RA-induced granulocytes (trypan blue dye exclusion); details: HL-60+Lbcl2SN cells treated with RA, compared to parental HL-60 cells
Procedure: FIG. 10A and FIG. 10B: Enhanced viability of HL-60-bcl-2 granulocytes. HL60 and HL-60-bcl-2 cells were induced with RA (1 μmol/L) which was added at day 0. At the indicated days after RA treatment (FIG. 10A), cell number was determined using a hemocytometer chamber and (FIG. 10B) percentage of cell viability was determined by trypan blue dye exclusion. The indicated points represent the mean of triplicate experiments (▴) HL-60 wt; (◯) HL-60 Bcl2.
To determine whether cell differentiation and apoptosis were closely linked processes that could not be separated, the inventor over expressed the proto-oncogene bcl-2 in HL-60 cells to block apoptosis the 1.9 kB cDNA of bcl-2 was subcloned into the retroviral vector LXSN to produce Lbcl2SN. The ecotropic packaging cell line PE501 was transfected and used to transduce the amphotropic packaging cell line PA317. High titer clones of PA317+Lbcl2SN were selected for transduction of HL-60 cells to produce HL-60+Lbcl2SN. Several clones were screened by Northern blot analysis and one clone with high bcl-2 expression was chosen for study. […] These cells were assayed for programmed cell death using the TUNEL reaction to score individual cells and the diphenylamine assay to determine the total amount of DNA undergoing fragmentation. […] Thus myeloid cell differentiation and apoptosis are independent processes that can be separated.

HL-60 cells [8] = test: RA-induced differentiation (morphology, CD11b, NBT reduction)
HL-60-bcl-2 cells [9] = test: as above
[10] = after 1 hour of TPA stimulation
[11] = arbitrary log scale 0 to 200, 18.5 U = doubling

| SMILES | % fluorescein positive (TUNEL) (HL-60 cells [1]; 2 days) [%] | % fluorescein positive (TUNEL) (HL-60 cells [1]; 4 days) [%] | % fluorescein positive (TUNEL) (HL-60 cells [1]; 6 days) [%] | time after which statistically significant evidence of fragmented DNA became apparent (HL-60 cells [1]; HL-60, DMSO) [days] | APE protein expression (Western blot) (HL-60 cells [2]; 10^-5 M RA or 1.25% DMSO, over 6 days, compared to ethanol treated controls) | APE protein expression (Western blot) (HL-60-bcl-2 cells [3]) | % rhodamine positive (APE) (HL-60 cells [4]; 2 days) [%] | % rhodamine positive (APE) (HL-60 cells [4]; 4 days) [%] | time after which expression of APE started to fall (fewer rhodamine positive cells) (HL-60 cells [4]; HL-60, DMSO) [days] | APE transcript expression (Northern blot) (HL-60 cells [5]; granulocytic induction with 10^-5 M RA or 1.25% DMSO, 0-6 days) | APE mRNA expression (Northern blot) (HL-60-bcl-2 cells [6]) | APE protein expression (Western blot) (HL-60 cells [2]; 100 nM PMA, after two days exposure) | APE transcript expression (Northern blot) (HL-60 cells [5]; 100 nM PMA) | survival of mature granulocytes (HL-60-bcl-2 cells [7]) | NBT (+), percentage of cells containing blue-black formazan deposits (HL-60 cells [8]; [10]) [%] | CD11b (+), relative mean fluorescence (HL-60 cells [8]; [11]) [U] | NBT (+), percentage of cells containing blue-black formazan deposits (HL-60-bcl-2 cells [9]; [10]) [%] | CD11b (+), relative mean fluorescence (HL-60-bcl-2 cells [9]; [11]) [U] |
| --- | --- | --- | --- | --- | --- | --- | --- | --- | --- | --- | --- | --- | --- | --- | --- | --- | --- | --- |
| C[S+](C)[O-] [DMSO] | 2.7 | 2.3 | 7 | 4 to 6 | nearly undectable | continuous expression | 34 | 0 | 2 | more rapid decrease to a lower level | similarly maintained |  |  |  |  |  |  |  |
| CCCCCCCCCCCCCC(=O)O[C@@H]1[C@@H](C)[C@@]2(O)[C@@H](C=C(CO)C[C@]3(O)C(=O)C(C)=C[C@@H]23)[C@@H]2C(C)(C)[C@]12OC(C)=O [PMA] |  |  |  |  |  | continuous expression |  |  |  |  | continuous expression | decreased to a very low level | Decreased expression |  |  |  |  |  |
| CC1=C(/C=C/C(C)=C/C=C/C(C)=C/C(=O)O)C(C)(C)CCC1 [RA, Retinoic Acid] |  |  |  |  |  |  |  |  |  |  |  |  |  | up to 40 days | >90 | 105.4 | >90 | 107.9 |

Source: US6406917B1, “Methods and compositions for the use of apurinic/apyrimidinic endonucleases” (Advanced Research And Technology Institute, priority 1996, dated 2002)
